One test relates to HCT116 MTAP+/+. Briefly: Inhibition of cellular proliferation (Cell Titer Glo), HCT116 MTAP+/+. The format is cell-based. The note with it: Homo sapiens, HCT-116, 96 h, Table 5a, 4 days, read-out: 4 Day Relative Growth Inhibition (MTAP +/+). The protocol:
(§1) Test compound impact on cancer cell growth was assessed by treating cancer cells with compound for 4 days and then measuring proliferation using an ATP-based cell proliferation readout (Cell Titer Glo, Promega Corporation).
(§2) In a typical assay an isogenic pair of HCT116 human colon carcinoma cell lines which vary only in MTAP deletion status (HCT116 MTAP+/+ and HCT116 MTAP−/−) were plated in 96-well dishes at appropriate cell density. Following 24 hours, cells were then treated with the candidate MAT2A inhibitor. […] Compound was then transferred to a working stock plate in cell culture media by adding 5 μL of compound in DMSO to 495 μL of cell culture media. This working stock was then added to cells via a further 5-fold dilution, by adding 25 μL of working stock to 100 μL of cells in culture media. Following compound addition, cells were incubated at 37° C./5% CO2 for 4 days.
(§3) The plate was then covered with aluminum foil and shaken for 15 minutes to ensure complete mixing and full cell lysis. […] This luminescence measure was converted to a proliferation index by subtracting from each data point the ATP luminescence signal measured from a bank (no cells) well and dividing by the ATP luminescence signal measured in 0.2% DMSO control well adjusted for signal in blank well.
For orientation: ATP-based viability assays read luminescence as a measure of living cells.

For another test, the system named is HCT116 MTAP-/-. Briefly: Inhibition of cellular proliferation (Cell Titer Glo), HCT116 MTAP-/-. The test is classed as cell-based, human. The note with it: 4 days, read-out: 4 Day Relative Growth Inhibition (MTAP −/−). The protocol: as §1, §2, §3
For test [1], the system named is SAM in HCT116 MTAP-deleted cells. Briefly: Cellular assay of target engagement (SAM), LC-MS/MS. The test is classed as cell-based, human. The conditions noted are these: 72 h, read-out: Cell 72 h SAM Inhibition (MTAP −/−). On the procedure:
Measurement of MAT2A activity in cells was made by direct quantitation of the abundance of the product of its enzymatic activity, SAM. Cancer cells were treated with candidate MAT2A inhibitors for a suitable incubation period, and the cells were then lysed using a reagent which quenched any further enzyme activity. Soluble metabolites including SAM were collected and SAM itself was directly measured from the lysate using quantitative LC-MS/MS.
A typical assay was performed using an HCT116 human colon carcinoma cell line which was genetically engineered to delete the MTAP gene (commercially available from Horizon Discovery). […] Cells were plated in 96-well dishes at appropriate cell density. Following 24 hours, cells were then treated with the candidate MAT2A inhibitor. […] Compound was then transferred to a working stock plate in cell culture media by adding 5 μL of compound in DMSO to 495 μL of cell culture media. This working stock was then added to cells via a further 5-fold dilution, by adding 25 μL of working stock to 100 μL of cells in culture media. Following compound addition, cells were incubated at 37° C./5% CO2 for 72 hrs.
To quantitate SAM levels following compound treatment, cells were gently washed once in ammonium carbonate buffer (75 mM at pH 7.4), placed on dry ice, and lysed with metabolite extraction buffer (80% cold methanol and 20% water (v/v) with acetic acid at 1M final concentration with 200 ng/mL deuterated d3-SAM as internal control). Following centrifugation at 4° C. at 3,200 rpm for 30 minutes, the supernatant was collected and stored at −80° C. until analysis by Liquid Chromatography with tandem Mass Spectrometry (LC-MS/MS). LC-MS/MS analysis was performed using an API6500 Mass Spectrometer (Sciex, Framingham, Mass., USA) operating in positive ion spray mode and equipped with a Waters UPLC Acquity (Waters, Milford, Mass., USA) BEH Amide column.

The target in another test is T1, MAT2A homodimer (Homo sapiens, UniProt P31153).
T1 construct: inferred from the Ni sepharose purification and imidazole elution; made in house; host or cells: SF9 insect cells, recombinant baculovirus (Bac to Bac, pFASTBAC1)
Briefly: MAT2A biochemical assay (liberated phosphate, PiColorLock Gold). The note with it: Table 5a; MAT2A biochemical assay; read-out: Enzyme Inhibition. In a few lines:
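Readout is liberated phosphate (PiColorLock Gold), stoichiometric with SAM production, quantified against a potassium phosphate standard curve. Enzyme: recombinant MAT2A homodimer from Sf9, equilibrated 60 min at 25 °C with compound before 60 min reaction with substrate mix containing 500 μM ATP and 400 μM L-methionine.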

The mark [2] stands for this setting: Homo sapiens, HCT-116, 96 h, Table 5a.
Where [3] appears, read: Homo sapiens, HCT-116, Table 5a.
The mark [4] stands for this setting: Table 6, select pairs of compounds.

These results are taken from patent US20220098203A1 (priority 2018, published 2022).

Like-named read-outs stand apart in the source and are kept apart here. Bounds are passed on as bounds.

T1 sequence (P31153 whole entry): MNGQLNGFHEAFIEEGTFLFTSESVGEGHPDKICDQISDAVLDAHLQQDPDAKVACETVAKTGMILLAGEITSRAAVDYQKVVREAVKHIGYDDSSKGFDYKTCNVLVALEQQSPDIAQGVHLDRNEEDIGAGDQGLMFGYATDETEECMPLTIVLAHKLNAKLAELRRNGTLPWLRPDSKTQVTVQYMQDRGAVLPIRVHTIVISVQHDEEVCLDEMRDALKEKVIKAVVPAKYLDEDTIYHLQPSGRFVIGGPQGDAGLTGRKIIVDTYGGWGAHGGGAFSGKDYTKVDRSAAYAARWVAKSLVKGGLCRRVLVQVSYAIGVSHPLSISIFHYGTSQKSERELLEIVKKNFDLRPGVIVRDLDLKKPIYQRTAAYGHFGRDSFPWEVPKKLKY

Consider `[2H]C([2H])([2H])Oc1ccc(N2C(=O)N(c3ccc4ncn(C)c4c3)Cc3ccc(OCC(F)F)nc32)cc1` [Example 135, 7-(2,2-difluoroethoxy)-1-(4-(methoxy-d3)phenyl)-3-(1-methyl-1H-benzo[d]imidazol-6-yl)-3,4-dihydropyrido[2,3-d]pyrimidin-2(1H)-one], for which the IC50 was greater than 1000 nM with HCT116 MTAP+/+, less than 100 nM in the test with HCT116 MTAP-/- (setting [2]), less than 100 nM in test [1] (setting [3]) and less than 100 nM on MAT2A homodimer.

Take `COc1ccc(N2Cc3cnc(NCC(F)(F)F)nc3N(c3ccc(-c4nc[nH]n4)cc3)C2=O)cc1` [Example 193, 1-(4-(1H-1,2,4-triazol-3-yl)phenyl)-3-(4-methoxyphenyl)-7-((2,2,2-trifluoroethyl)amino)-3,4-dihydropyrimido[4,5-d]pyrimidin-2(1H)-one]: the IC50 was greater than 1000 nM in the test on HCT116 MTAP+/+, 100 to 1000 nM in the test on HCT116 MTAP-/- (setting [2]), less than 100 nM in test [1] (setting [3]) and less than 100 nM at MAT2A homodimer.

As to `CCSc1ccc2c(n1)N(c1ccc(OC)cc1)C(=O)N(c1ccc3nn(C)cc3c1)C2` [Example 132, 7-(ethylthio)-1-(4-methoxyphenyl)-3-(2-methyl-2H-indazol-5-yl)-3,4-dihydropyrido[2,3-d]pyrimidin-2(1H)-one], the IC50 with HCT116 MTAP+/+ was greater than 1000 nM; in the test on HCT116 MTAP-/- (setting [2]), 100 to 1000 nM; with HCT116 MTAP-/- (setting [4]) it was 100 to 1000 nM; in test [1] (setting [3]) it was 100 to 1000 nM; in test [1] (setting [4]), 100 to 1000 nM; at MAT2A homodimer it was less than 100 nM.

With `CCOc1cnc2c(c1)N(c1ccc(Cl)cc1)C(=O)N(c1ccc3nn(C)cc3c1)C2` [Example 291], the IC50 was greater than 1000 nM in the test on HCT116 MTAP+/+, greater than 1000 nM in the test with HCT116 MTAP-/- (setting [2]), 100 to 1000 nM in test [1] (setting [3]) and 100 to 1000 nM on MAT2A homodimer.

With `[2H]C([2H])([2H])Oc1ccc(N2C(=O)N(c3ccc4nn(CC)cc4c3)Cc3ccc(OCC(F)F)nc32)cc1` [Example 124, 7-(2,2-difluoroethoxy)-3-(2-ethyl-2H-indazol-5-yl)-1-(4-methoxy-d3-phenyl)-3,4-dihydropyrido[2,3-d]pyrimidin-2(1H)-one], the IC50 is greater than 1000 nM in the test on HCT116 MTAP+/+, less than 100 nM with HCT116 MTAP-/- (setting [2]), less than 100 nM in test [1] (setting [3]) and less than 100 nM at MAT2A homodimer.

Turning to `[2H]C([2H])([2H])Oc1ccc(N2C(=O)N(c3ccc4nn(C(C)C)cc4c3)Cc3ccc(OCC(F)F)nc32)cc1` [Example 118, 7-(2,2-difluoroethoxy)-3-(2-isopropyl-2H-indazol-5-yl)-1-(4-methoxy-d3-phenyl)-3,4-dihydropyrido[2,3-d]pyrimidin-2(1H)-one], the IC50 with HCT116 MTAP+/+ was greater than 1000 nM; in the test with HCT116 MTAP-/- (setting [2]), less than 100 nM; in test [1] (setting [3]) it was 100 to 1000 nM; at MAT2A homodimer, less than 100 nM.

Regarding `[2H]C([2H])([2H])Oc1ccc(N2C(=O)N(c3ccc4nn(C)cc4c3)Cc3ncc(OCC)nc32)cc1` [Example 417, 7-ethoxy-1-(4-(methoxy-d3)phenyl)-3-(2-methyl-2H-indazol-5-yl)-3,4-dihydropteridin-2(1H)-one], the IC50 in the test with HCT116 MTAP+/+ was 100 to 1000 nM; in the test on HCT116 MTAP-/- (setting [2]), 100 to 1000 nM; in test [1] (setting [3]), less than 100 nM; on MAT2A homodimer it was less than 100 nM.

For `COc1ccc(N2C(=O)N(c3ccc4nn(C)cc4c3)Cc3cnc(NCC(F)(F)F)nc32)cc1` [Example 422, 1-(4-methoxyphenyl)-3-(2-methyl-2H-indazol-5-yl)-7-((2,2,2-trifluoroethyl)amino)-3,4-dihydropyrimido[4,5-d]pyrimidin2(1H)-one], the IC50 is greater than 1000 nM in the test with HCT116 MTAP+/+, less than 100 nM with HCT116 MTAP-/- (setting [2]), less than 100 nM in test [1] (setting [3]) and less than 100 nM at MAT2A homodimer.

Turning to `[2H]C([2H])([2H])Oc1ccc(N2C(=O)N(c3ccc4nc(OC)n(C)c4c3)Cc3ccc(OCC(F)F)nc32)cc1` [Example 431, 7-(2,2-difluoroethoxy)-3-(2-methoxy-1-methyl-1H-benzo[d]imidazol-6-yl)-1-(4-(methoxy-d3)phenyl)-3,4-dihydropyrido[2,3-d]pyrimidin-2(1H)-one], the IC50 in the test on HCT116 MTAP+/+ is greater than 1000 nM; in the test with HCT116 MTAP-/- (setting [2]) it was 100 to 1000 nM; in test [1] (setting [3]), less than 100 nM; at MAT2A homodimer, less than 100 nM.

For the compound `[2H]C([2H])([2H])Oc1ccc(N2C(=O)N(c3ccc4nn(CCOC)cc4c3)Cc3ccc(OCC(F)F)nc32)cc1` [Example 125, 7-(2,2-difluoroethoxy)-3-(2-(2-methoxyethyl)-2H-indazol-5-yl)-1-(4-methoxy-d3-phenyl)-3,4-dihydropyrido[2,3-d]pyrimidin-2(1H)-one], the IC50 in the test with HCT116 MTAP+/+ was greater than 1000 nM; in the test on HCT116 MTAP-/- (setting [2]) it was less than 100 nM; in test [1] (setting [3]) it was less than 100 nM; on MAT2A homodimer, less than 100 nM.

For `COc1ccc(N2Cc3cnc(NCC(F)(F)F)nc3N(c3ccc(CO)cc3)C2=O)cc1` [Example 202, 1-(4-(hydroxymethyl)phenyl)-3-(4-methoxyphenyl)-7-((2,2,2-trifluoroethyl)amino)-3,4-dihydropyrimido[4,5-d]pyrimidin-2(1H)-one], the IC50 with HCT116 MTAP+/+ was greater than 1000 nM; in the test on HCT116 MTAP-/- (setting [2]), 100 to 1000 nM; in test [1] (setting [3]), 100 to 1000 nM; on MAT2A homodimer it was 100 to 1000 nM.

With `CCOc1ccc2c(n1)N(c1ccc(OC)cc1)C(=O)N(c1ccc3nn(C)cc3c1)C2` [Example 143, 7-ethoxy-1-(4-methoxyphenyl)-3-(2-methyl-2H-indazol-5-yl)-3,4-dihydropyrido[2,3-d]pyrimidin-2(1H)-one], the IC50 in the test on HCT116 MTAP+/+ was greater than 1000 nM; in the test on HCT116 MTAP-/- (setting [2]) it was 100 to 1000 nM; in test [1] (setting [3]) it was less than 100 nM; at MAT2A homodimer, less than 100 nM.

In the case of `COc1ccc(N2Cc3cnc(NCC(F)(F)F)nc3N(c3ccc(Br)cc3)C2=O)cc1` [Example 236, 1-(4-bromophenyl)-3-(4-methoxyphenyl)-7-((2,2,2-trifluoroethyl)amino)-3,4-dihydropyrimido[4,5-d]pyrimidin-2(1H)-one], the IC50 in the test on HCT116 MTAP+/+ is greater than 1000 nM; with HCT116 MTAP-/- (setting [2]), greater than 1000 nM; in test [1] (setting [3]), 100 to 1000 nM; on MAT2A homodimer, less than 100 nM.

With `Cn1cc2cc(N3Cc4ccc(OCC(F)F)nc4N(c4ccc5[nH]ccc5c4)C3=O)ccc2n1` [Example 169, 7-(2,2-difluoroethoxy)-1-(1H-indol-5-yl)-3-(2-methyl-2H-indazol-5-yl)-3,4-dihydropyrido[2,3-d]pyrimidin-2(1H)-one], the IC50 was greater than 1000 nM in the test on HCT116 MTAP+/+, less than 100 nM in the test with HCT116 MTAP-/- (setting [2]), less than 100 nM in test [1] (setting [3]) and less than 100 nM at MAT2A homodimer.

As to `CCOc1ccc2c(n1)N(c1ccc(CF)nc1)C(=O)N(c1ccc3nn(C)cc3c1)C2` [Example 282, 7-ethoxy-1-(6-(fluoromethyl)pyridin-3-yl)-3-(2-methyl-2H-indazol-5-yl)-3,4-dihydropyrido[2,3-d]pyrimidin-2(1H)-one], the IC50 was greater than 1000 nM in the test on HCT116 MTAP+/+, less than 100 nM with HCT116 MTAP-/- (setting [2]), less than 100 nM in test [1] (setting [3]) and less than 100 nM at MAT2A homodimer.

For the compound `COc1ccc(N2C(=O)N(c3ccc4nccnc4c3)Cc3cnc(NCC(F)(F)F)nc32)cc1` [Example 233, 1-(4-methoxyphenyl)-3-(quinoxalin-6-yl)-7-((2,2,2-trifluoroethyl)amino)-3,4-dihydropyrimido[4,5-d]pyrimidin-2(1H)-one], the IC50 in the test with HCT116 MTAP-/- (setting [2]) was 100 to 1000 nM; in test [1] (setting [3]), 100 to 1000 nM; at MAT2A homodimer it was less than 100 nM.
